Data reported in patent US20040127492A1 (Pharmacia Corporation, priority 2002, published 2004).
Structures can show the parent of a compound that is named as a salt. Where two headings read alike, the source gives them in different places.

Biological target: MAPKAPK2 (MK-2) (Homo sapiens, UniProt P49137)
Test: Determination of MK-2 IC50 (HSP-peptide phosphorylation, anion exchange resin capture assay)
Assay type: biochemical
Description: Determination of MK-2 IC50:
Recombinant MAPKAPK2 was phosphorylated at a concentration of 42-78 μM by incubation with 0.23 μM of active p38α in 50 mM HEPES, 0.1 mM EDTA, 10 mM magnesium acetate, and 0.25 mM ATP, pH 7.5 for one hour at 30° C.
The phosphorylation of HSP-peptide ([…]) by MAPKAPK2 was measured using an anion exchange resin capture assay method. The reaction was carried out in 50 mM β-glycerolphosphate, 0.04% BSA, 10 mM magnesium acetate, 2% DMSO and 0.8 mM dithiotheritol, pH 7.5 in the presence of the HSP-peptide with 0.2 μCi [γ^33P]ATP and 0.03 mM ATP. The reaction was initiated by the addition of 15 nM MAPKAPK2 and was allowed to incubate at 30° C. for 30 min. The reaction was terminated and [γ^33P]ATP was removed from solution by the addition of 150 μl of AG 1×8 ion exchange resin in 900 mM sodium formate pH 3.0. A 50 μl aliquot of head volume was removed from the quenched reaction mixture and added to a 96-well plate, 150 μl of Microscint-40 (Packard) was added and the amount of phosphorylated-peptide was determined. Allow the Microscint to sit in the plates for 60 minutes prior to counting.
Compounds are evaluated as potential inhibitors of the MK-2 kinase by measuring their effects on MK-2 phosphorylation of the peptide substrate. Compounds may be screened initially at two concentrations prior to determination of IC50 values. Screening results are expressed as percent inhibition at the concentrations of compound tested. For IC50 value determinations, Compounds are tested at six concentrations in ten-fold serial dilutions with each concentration tested in triplicate. Results are expressed as IC50 values in micromolar. The assay is performed at a final concentration of 2% DMSO.

[1] = Table 2, pyrazolylpyrazole MK-2 inhibitors, read-out: MK-2 Avg. IC50
[2] = Table 1, phenoxypyrazole MK-2 inhibitors, read-out: MK-2 Avg, IC50
[3] = Table 4, pyrimidylpyrazole MK-2 inhibitors, read-out: MK-2 Avg. IC50

Chain of MAPKAPK2 (MK-2) (P49137 whole entry, species assumed): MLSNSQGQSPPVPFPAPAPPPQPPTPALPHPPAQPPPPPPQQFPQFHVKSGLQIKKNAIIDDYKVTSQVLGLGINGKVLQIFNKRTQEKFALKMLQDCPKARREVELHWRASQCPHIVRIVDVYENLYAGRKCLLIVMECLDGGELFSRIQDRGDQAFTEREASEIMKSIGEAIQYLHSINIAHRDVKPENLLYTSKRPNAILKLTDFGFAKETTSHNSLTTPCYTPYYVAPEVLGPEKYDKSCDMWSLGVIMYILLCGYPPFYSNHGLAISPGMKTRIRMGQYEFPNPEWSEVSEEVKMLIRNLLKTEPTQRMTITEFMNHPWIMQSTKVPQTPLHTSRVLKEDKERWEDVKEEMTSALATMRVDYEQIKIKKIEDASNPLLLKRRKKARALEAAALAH

| IC50 (read-out: MK-2 Avg. IC50) | Structure (SMILES) | also measured |
| --- | --- | --- |
| 176 µM | CC(=O)Nc1ccc(S(=O)(=O)NCCCn2nc3c(c2C(=O)O)CCc2cnccc2-3)cc1 [Example 276] |  |
| 128 µM | O=C(O)c1c2c(nn1CC(O)CN1CCOCC1)-c1ccncc1CC2 (centres unmarked) [Example 260] |  |
| 10.4 µM | O=C(NCCCn1nc2c(c1C(=O)O)CCc1cnccc1-2)c1cccnc1 [Example 162] |  |
| 163 µM | O=C(O)c1c2c(nn1CC(O)CNCCc1cccs1)-c1ccncc1CC2 (centres unmarked) [Example 273] |  |
| 53.5 µM | CCCCNC(=O)NCCCn1nc2c(c1C(=O)O)CCc1cnccc1-2 [Example 213] |  |
| 10.4 µM | O=C(O)c1c2c(nn1CCCNC1CCCC1)-c1ccncc1CC2 [Example 164] |  |
| 47.9 µM | NC(=O)C1CCN(CCCn2nc3c(c2C(=O)O)CCc2cnccc2-3)CC1 [Example 210] |  |
| 130 µM | N#Cc1ccc(S(=O)(=O)NCCCn2nc3c(c2C(=O)O)CCc2cnccc2-3)cc1 [Example 262] |  |
| 21.5 µM | O=C(O)c1c2c(nn1CCCBr)-c1ccncc1CC2 [Example 188] |  |
| 68 µM | O=C(NCCCn1nc2c(c1C(=O)O)CCc1cnccc1-2)c1ccccc1 [Example 227] |  |
| 55.3 µM | C=CCNC(=O)NCCCn1nc2c(c1C(=O)O)CCc1cnccc1-2 [Example 217] |  |
| 59.5 µM | O=C1CCCn2nc3c(c21)CCc1cnccc1-3 [Example 219] |  |
| 15.4 µM | O=C(NCCCn1nc2c(c1C(=O)O)CCc1cnccc1-2)NCc1ccccc1 [Example 176] |  |
| 71 µM | O=C(O)c1c2c(nn1CC=NO)-c1ccncc1CC2 [Example 229] |  |
| 14 µM | O=C(O)c1c2c(nn1CC(O)CNC1Cc3ccccc3C1)-c1ccncc1CC2 (centres unmarked) [Example 172] |  |
| 162 µM | O=C(O)c1c2c(nn1CC(O)CN1CCCC1)-c1ccncc1CC2 (centres unmarked) [Example 272, hydrochloride] |  |
| 164 µM | Cn1cnc(S(=O)(=O)NCCCn2nc3c(c2C(=O)O)CCc2cnccc2-3)c1 [Example 274] |  |

| IC50 (read-out: MK-2 Avg. IC50) | Structure (SMILES) | also measured |
| --- | --- | --- |
| 66.1 µM | O=C(Cc1cccs1)NCCCn1nc2c(c1C(=O)O)CCc1cnccc1-2 [Example 226] |  |
| 190 µM | O=C(NCCCn1nc2c(c1C(=O)O)CCc1cnccc1-2)c1ccco1 [Example 279] |  |
| 21.9 µM | CC(C)NCCCn1nc2c(c1C(=O)O)CCc1cnccc1-2 [Example 190] |  |
| 84.3 µM | O=C(O)c1c2c(nn1CC=NO)-c1ccncc1CC2 [Example 235] |  |
| 14.6 µM | O=C(O)c1c2c(nn1CCCNCCN1CCCC1)-c1ccncc1CC2 [Example 174] |  |
| 10.7 µM | O=C(O)c1c2c(nn1CCCNCCc1c[nH]c3ccccc13)-c1ccncc1CC2 [Example 165] |  |
| 198 µM | O=C(O)c1c2c(nn1CC(O)CN1CCNCC1)-c1ccncc1CC2 (centres unmarked) [Example 283] |  |
| 25 µM | NC(CCn1nc2c(c1C(=O)O)CCc1cnccc1-2)C(=O)O (centres unmarked) [Example 191] |  |
| 50.1 µM | NC(=O)CCCn1nc2c(c1C(=O)O)CCc1cnccc1-2 [Example 211] |  |
| 30.1 µM | COc1ccc(CC(=O)NCCCn2nc3c(c2C(=O)O)CCc2cnccc2-3)cc1 [Example 198] |  |
| 42.5 µM | CCOC(=O)NC(=O)NCCCn1nc2c(c1C(=O)O)CCc1cnccc1-2 [Example 209] |  |
| 17.7 µM | CC(C)NCCn1nc2c(c1C(=O)O)CCc1cnccc1-2 [Example 182] |  |
| 186 µM | NCCCn1nc2c(c1CO)CCc1cnccc1-2 [Example 277] |  |
| 10.3 µM | O=C(O)c1c2c(nn1CCCNCc1cccc(Cl)c1)-c1ccncc1CC2 [Example 161] |  |
| 83.4 µM | CSc1nccc2c1CCc1c-2nn(CCCN)c1C(=O)O [Example 234] |  |
| 112 µM | CC(C)(C)OC(=O)NCCCn1nc2c(c1C(=O)O)CCc1cnc(Cl)cc1-2 [Example 254] |  |

The remaining lines, values behind:

| Structure (SMILES) | IC50 (read-out: MK-2 Avg. IC50) | also measured |
| --- | --- | --- |
| O=C1NCCn2nc3c(c21)CCc1c-3ccnc1Nc1ccccc1 [Example 215] | 53.8 µM |  |
| COC(=O)c1[nH]nc2c1CCc1cnccc1-2 [Example 275] | 171 µM |  |
| CN(c1ccccc1)c1cc2c(cn1)CCc1c-2nn2c1C(=O)NCC2 [Example 250] | 101 µM |  |
| O=C1NCCn2nc3c(c21)CCc1cnc(-c2ccc(OCc4ccccc4)cc2)cc1-3 [Example 205] | 36.4 µM |  |
| COC(=O)C1Cn2nc3c(c2C(=O)N1)CCc1cnccc1-3 (centres unmarked) [Example 180] | 16.5 µM |  |
| CCOC(=O)c1[nH]nc2c1CCc1[nH]nc([S+](C)[O-])c1-2 (centres unmarked) [Example 63] |  | IC50 [1]: ≥ 200 µM |
| FC(F)c1[nH]nc2c1CCc1cnccc1-2 [Example 244] | 96.5 µM |  |
| O=C1NCCn2nc3c(c21)CCc1cnc(-c2ccc(Oc4ccccc4)cc2)cc1-3 [Example 257] | 119 µM |  |
| c1coc(-c2[nH]nc3c2CCc2cnccc2-3)c1 [Example 214] | 53.7 µM |  |
| NC(=O)Cn1nc(C(N)=O)c2c1-c1cn[nH]c1CC2 [Example 57] |  | IC50 [1]: ≥ 200 µM |
| C[S+]([O-])c1n[nH]c2c1-c1n[nH]c(C(=O)O)c1CC2 (centres unmarked) [Example 62] |  | IC50 [1]: ≥ 200 µM |
| NCCCC1CNC(=O)c2c3c(nn21)-c1ccncc1CC3 (centres unmarked) [Example 166] | 11 µM |  |
| CSc1[nH]nc2c1CCc1cnccc1-2 [Example 237] | 85.2 µM |  |
| Nc1cccc(-c2cc3c(cc2O)CCc2c-3nn3c2C(=O)NCCC3)c1 [Example 51] |  | IC50 [2]: 105 µM |
| CC1CCCN(c2cc3c(cn2)CCc2c-3nn3c2C(=O)NCC3)C1 (centres unmarked) [Example 236] | 84.4 µM |  |
| CC(C)(C)c1ccc(-c2cc3c(cn2)CCc2c-3nn3c2C(=O)NCC3)cc1 [Example 248] | 101 µM |  |
| c1ccc2ncc(-c3cc4c(cn3)CCc3c[nH]nc3-4)cc2c1 [Example 212] | 52 µM |  |
| ON=C1CCCn2nc3c(c21)CCc1cnccc1-3 [Example 263] |  | IC50 (MK-2 Avg. IC50): 131 µM |
| O=C1NCCCn2nc3c(c21)CCc1cc(O)ccc1-3 [Example 18] |  | IC50 [2]: 17 µM |
| Cc1nccc2c1CCc1c-2nn2c1C(=O)NCCC2 [Example 186] | 20 µM |  |
| O=C1NCCn2nc3c(c21)CCc1cnc(CCc2ccc(Cl)cc2)cc1-3 [Example 223] | 63.2 µM |  |
| CC(C)Cc1cc2c(cc1O)CCc1c-2nn(CCCN)c1C(=O)O [Example 25] |  | IC50 [2]: 20.8 µM |
| O=C1NCCCn2nc3c(c21)CCc1cnc(-c2ccncc2)nc1-3 [Example 9] |  | IC50 [3]: 8.62 µM |
| O=C1NCCn2nc3c(c21)CCc1cnc(CCC2CCCCC2)cc1-3 [Example 259] | 121 µM |  |

| Structure (SMILES) | IC50 (read-out: MK-2 Avg. IC50) | also measured |
| --- | --- | --- |
| CC(C)(C)CCc1cc2c(cn1)CCc1c-2nn2c1C(=O)NCC2 [Example 202] | 35.6 µM |  |
| NCCCn1nc(C(N)=O)c2c1-c1cn[nH]c1CC2 [Example 28] |  | IC50 [1]: 104 µM |
| NC(=O)c1[nH]nc2c1CCc1[nH]nc(SCc3ccccc3)c1-2 [Example 25] |  | IC50 [1]: 80.7 µM |
| O=C1NCCCn2nc3c(c21)CCc1cnc(-c2ccc4c(c2)OCO4)nc1-3 [Example 7] |  | IC50 [3]: 3.14 µM |
| COC(=O)c1[nH]nc2c1C(C)Cc1cc(OC)ccc1-2 (centres unmarked) [Example 100] |  | IC50 [2]: > 200 µM |
| CCOC(=O)c1[nH]nc2c1CCc1[nH]nc(SC)c1-2 [Example 65] |  | IC50 [1]: ≥ 200 µM |
| O=C(O)c1c2c(nn1CCCNC(c1ccccc1)(c1ccccc1)c1ccccc1)-c1nc(-c3ccccc3)ncc1CC2 [Example 10] |  | IC50 [3]: 52.2 µM |
| CN1CCn2nc3c(c2C1=O)CCc1cnccc1-3 [Example 270] | 156 µM |  |
| O=C(O)c1[nH]nc2c1CCc1cnccc1-2 [Example 224] | 63.4 µM |  |
| O=C1NCCCn2nc3c(c21)CCc1cnc(-c2cnc4ccccc4c2)nc1-3 [Example 4] |  | IC50 [3]: 1.47 µM |
| O=C1NCCn2nc3c(c21)CCc1cnc(/C=C/c2ccc(O)cc2)cc1-3 [Example 3] |  | IC50 (Table 5, other cyclic pyrazole MK-2 inhibiting compounds, read-out: MK-2 Avg. IC50): 0.164 µM |
| O=C1NCCn2nc3c(c21)CCc1cnc(N2CCc4ccccc4C2)cc1-3 [Example 175] | 15 µM |  |
| NCCCn1nc2c(c1C(=O)O)CCc1c-2ccnc1-c1ccccc1 [Example 239] | 87.6 µM |  |
| COc1cc2c(cc1-c1cccc(Cl)c1)-c1nn(CCCNC(=O)OC(C)(C)C)c(C(=O)O)c1CC2 [Example 50] |  | IC50 [2]: 104 µM |
| COC(=O)c1c2c(nn1CCCNC(=O)OC(C)(C)C)-c1cc(-c3cccc(Cl)c3)c(OC)cc1CC2 [Example 131] |  | IC50 [2]: > 200 µM |
| O=C1NC(C(O)CO)Cn2nc3c(c21)CCc1cnccc1-3 (centres unmarked) [Example 167] | 11.8 µM |  |
| O=C1NCCCn2nc3c(c21)CCc1cnc(-c2cccc([N+](=O)[O-])c2)cc1-3 [Example 50] | 0.453 µM |  |
| CSc1n[nH]c2c1-c1n[nH]c(C(N)=O)c1CC2 [Example 18] |  | IC50 [1]: 30.3 µM |
| O=C(O)c1[nH]nc2c1CCc1cc(O)c(Br)cc1-2 [Example 66] |  | IC50 [2]: 163 µM |
| CCCn1nc2c(c1C(N)=O)CCc1cnc(-c3cnc4ccccc4c3)cc1-2 [Example 252] | 103 µM |  |
| COC(=O)c1[nH]nc2c1CCc1cc(O)c(S(=O)(=O)N(C)C)cc1-2 [Example 47] |  | IC50 [2]: 92.8 µM |
| O=C1NCCn2nc3c(c21)CCc1cnc(N2CCCC2)cc1-3 [Example 189] | 21.6 µM |  |
| Cc1ccc(C(C)CCN(CCCn2nc3c(c2C(=O)O)CCc2cnccc2-3)CCC(C)c2ccc(C)o2)o1 (centres unmarked) [Example 241] | 87.9 µM |  |
